# Test results: patent US7314878B2, “Piperazine benzothiazoles as agents for the treatment of cerebral ischemic disorders or CNS disorders” (Laboratories Serono SA, priority 2002, dated 2008)
# Like-named read-outs stand apart in the source and are kept apart here.
# How the values were obtained:
# [1] = system: neuronal death in CA1/CA2 subfields of the hippocampus; assay: Global ischemia in gerbils (bilateral carotid occlusion); format: in vivo; conditions: 40 mg per kg ip, 15 min, 24 h and 48 h after reperfusion; gerbil
# Text: b) Global Ischemia in Gerbils
# The ability of the JNK inhibitors described in formula I to protect cell death during a stroke event may be assessed using the following protocol:
# The gerbil bilateral carotid occlusion is a well-described animal model of acute ischemic stroke and involves relatively easy surgical techniques.
# The neuronal degeneration in the hippocampus develops over several days and is often referred as “delayed neuronal death”. In addition, the neurodegeneration observed histologically is obvious and easily quantified (11). Furthermore, the histopathology seen in the gerbil is similar to that observed in the hippocampal CA1 region of the human brain following a cardiac arrest. Behavior observations, such as memory tests, could even be performed in the case of gerbils. This kind of tests for appreciation of the degree of recovery is not easily manageable in other models such as in rat whose learning abilities are much poorer (12).
# The neuroprotective effect according to formula I to protect may be assessed using-the gerbil global ischemia model and such a protocol: […]
# [2] = Assessment of the BBB passage: brain and plasma sampling; format: in vivo, Sprague Dawley rats; conditions: rat, i.v. 10 mg/kg; for concentration at 0.25 h / concentration at 0.5 h / concentration at 1 h: pooled n = 2
# Text: c) Assessment of the BBB Passage: Brain and Plasma Sampling
# The compounds of the present invention are useful in the treatment and/or prophylaxis of cerebral ischemic disorders or CNS disorders. Specifically, the compounds of the present invention show a good capacity to cross the blood-brain barrier (EBB). The BBB passing capacity of the compounds according to formulae I or II may be assessed using the below protocols. The objective of this assay is to quantify the amount of the test compounds according to formulae I or II in the brain of rats following i.v. administration.
# Six male Crl:CD(SD)Br Sprague Dawley rats (about 8 weeks old and having a weight of about 300 g) were divided into the 3 following groups:
# 2 animals for i.v. administration (10 mg/kg of test compound of formula I in 0.9% NaCl for injection). The test compound is administered by single dose (dose regimen). The sampling is performed at 0.25 h after sacrifice.
# 2 animals for i.v. administration (10 mg/kg of test compound of formula I in 0.9% NaCl for injection). The test compound is administered by single dose (dose regimen). The sampling is performed at 0.5 h after sacrifice.
# 2 animals for i.v. administration (10 mg/kg of test compound of formula I in 0.9% NaCl for injection). The test compound is administered by single dose (dose regimen). The sampling is performed at 1 h after sacrifice.
# At each scheduled killing time, the animals of the corresponding group are deeply anaesthetised with diethyl ether. The blood for the corresponding blood samples is collected into heparinised tubes and centrifuged to remove the blood cells thus providing plasma. Plasma samples obtained at each sampling time (i.e. at t=0.25 h, 0.5 h, 1 h) from the rats of each group after administration of the test compound of formula (I) are pooled in order to obtain 1 pooled sample per sampling time per group. Rats are then sacrificed by exsanguination.
# For the-brain sampling, the whole brain (cerebrum and cerebellum) of the sacrificed animals is removed. Brain from two animals per sampling time (i.e. at t=0.25 h, 0.5 h, 1 h after administration) are pooled in order to obtain one pooled sample per sampling time. Each pooled sample is homogenized in a solvent mixture (acetonitrile/methanol/dimethyl-sulfoxide, 50:48:2 by volume) centrifuged and the supernatant analyzed for the test compound.
# Concentrations in plasma samples and brain homogenates are quantified according to an analytical HPLC-MS/MS method, properly developed for the compound.
# The test compound used in this assay is the one set out in Example 1 (i.e. 1,3-benzothiazol-2-yl[2-({4-[(4-methylpiperazin-1-yl)methyl]-benzyl}oxy)pyrimidin-4-yl]acetonitrile.
structure (smiles),measurement,setting,value
"CN1CCN(Cc2ccc(COc3nccc(C(C#N)c4nc5ccccc5s4)n3)cc2)CC1 (centres unmarked) [Example 1, 1,3-benzothiazol-2-yl[2-({4-[(4-methylpiperazin-1-yl)methyl]-benzyl}-oxy)pyrimidin-4yl]acetonitrile]",inhibition of neuronal death,[1],about 60%
same,concentration at 0.25 h,"[2]; male, Crl:CD(SD)Br Sprague Dawley, brain, iv, 0.25 h, read-out: Brain concentration",919 ng/g
same,concentration at 0.5 h,"[2]; male, Crl:CD(SD)Br Sprague Dawley, brain, iv, 0.5 h, read-out: Brain concentration",657 ng/g
same,concentration at 1 h,"[2]; male, Crl:CD(SD)Br Sprague Dawley, brain, iv, 1 h, read-out: Brain concentration",679 ng/g
same,Kp at 0.25 h,"[2]; male, Crl:CD(SD)Br Sprague Dawley, brain/plasma, iv, 0.25 h, read-out: Brain/Plasma ratio",0.32
same,Kp at 0.5 h,"[2]; male, Crl:CD(SD)Br Sprague Dawley, brain/plasma, iv, 0.5 h, read-out: Brain/Plasma ratio",0.3
same,Kp at 1 h,"[2]; male, Crl:CD(SD)Br Sprague Dawley, brain/plasma, iv, 1 h, read-out: Brain/Plasma ratio",0.34
same,concentration at 0.25 h,"[2]; male, Crl:CD(SD)Br Sprague Dawley, plasma, iv, 0.25 h, read-out: Plasma concentration",2840 ng/mL
same,concentration at 0.5 h,"[2]; male, Crl:CD(SD)Br Sprague Dawley, plasma, iv, 0.5 h, read-out: Plasma concentration",2160 ng/mL
same,concentration at 1 h,"[2]; male, Crl:CD(SD)Br Sprague Dawley, plasma, iv, 1 h, read-out: Plasma concentration",1980 ng/mL
same,passage into the brain,[2]; 0.25-1 h,considerable and sustained passage of the test compound into the brain
